Results reported in US12728119B2, “Pharmaceutical composition for preventing or treating cancer comprising 3-ketoacyl CoA thiolase inhibitor and carnitine acylcarnitine carrier inhibitor” (NATIONAL CANCER CENTER, priority 2020, dated 2026).
Several values for one entry are separate records, joined by “and”; a condition that tells them apart may be missing. Equal entries are not always repeated.

Experiments:
Format in all cases: cell-based
[1] = system: BxPC-3 pancreatic cancer cell line; assay: SRB analysis 1; conditions: Homo sapiens, % compared to the control group, read-out: degree of growth inhibition
Procedure: (§1) Pancreatic cancer (MIA PaCa2, Capan1, Capan2, BxPC-3, SNU-213 or SNU-324) cell lines (100 μl) were seeded into 96-well microtiter plates at densities ranging from 7,500 to 10,000 cells/well depending on the doubling time of each cell line. After adding Trimetazidine (KN713) 1 mM, omeprazole (KN510) 100 or 200 μM, trimetazidine 1 mM+omeprazole 100 μM, trimetazidine 1 mM+omeprazole 200 μM, respectively, to each well by 100 μl each, and plate was incubated in a CO2 incubator, and cold TCA was added to terminate the assay. 50 μl of cold 50% (w/v) TCA (final concentration: 10% TCA) was gently added to fix the cells and incubated at 4° C. for 60 minutes. The supernatant was discarded and the plate was washed 5 times with tap water and then air dried. A solution of 0.4% (w/v) Sulforhodamine B (100 μl) in 1% acetic acid was added to each well, and the plate was left at room temperature for 10 minutes. After staining, the plates were air dried after washing 5 times with 1% acetic acid to remove unbound dye. The bound dye was then solubilized with 10 mM trizma base and the absorbance was recorded at 515 nm using an automated plate reader.

[2] = system: Capan1 pancreatic cancer cell line; assay: SRB analysis 1; conditions: Homo sapiens, % compared to the control group, read-out: degree of growth inhibition
Procedure: as §1

[3] = system: Capan2 pancreatic cancer cell line; assay: SRB analysis 1; conditions: Homo sapiens, % compared to the control group, read-out: degree of growth inhibition
Procedure: as §1

[4] = system: MIA PaCa2 pancreatic cancer cell line; assay: SRB analysis 1; conditions: Homo sapiens, % compared to the control group, read-out: degree of growth inhibition
Procedure: as §1

[5] = system: SNU-213 pancreatic cancer cell line; assay: SRB analysis 1; conditions: % compared to the control group, read-out: degree of growth inhibition
Procedure: as §1

[6] = system: SNU-324 pancreatic cancer cell line; assay: SRB analysis 1; conditions: % compared to the control group, read-out: degree of growth inhibition
Procedure: as §1

[7] = system: AsPC-1 pancreatic cancer cells; assay: SRB analysis 2; conditions: 48 hours
Procedure: (§2) The SRB assay was performed as follows: each cell line (100 μl) was seeded into 96-well microtiter plates at densities ranging from 5,000 to 20,000 cells/well depending on the doubling time of each cell line. After cell seeding, microtiter plates were incubated for 24 h before addition of experimental drug. Drugs were prepared at the indicated concentrations and 100 μl was added to each well; The plates were then incubated in a CO2 incubator. Then, cold TCA was added to terminate the assay. Cells were fixed in situ by gentle addition of 50 μl of cold 50% (w/v) TCA (final concentration: 10% TCA) and incubated at 4° C. for 60 min. The supernatant was discarded and the plate was washed 5 times with tap water and then air dried. A solution (100 μl) of 0.4% (w/v) SRB (Sulforhodamine B) in 1% acetic acid was added to each well, and the plate was left at room temperature for 10 minutes. After staining, the plates were air dried after washing 5 times with 1% acetic acid to remove unbound dye. The bound dye was then solubilized with 10 mM trizma base and the absorbance was recorded at 515 nm using an automated plate reader.

[8] = system: BxPC-3 pancreatic cancer cells; assay: SRB analysis 2; conditions: 48 hours
Procedure: as §2

[9] = system: MIA PaCa2 pancreatic cancer cells; assay: SRB analysis 2; conditions: MIA PaCa-2, 48 hours
Procedure: as §2

[10] = system: SNU-213 pancreatic cancer cells; assay: SRB analysis 2; conditions: SNU213, 48 hours
Procedure: as §2

[11] = system: SNU-324 pancreatic cancer cells; assay: SRB analysis 2; conditions: SNU324, 48 hours
Procedure: as §2

[12] = system: SU.86.86 pancreatic cancer cells; assay: SRB analysis 2; conditions: 48 hours
Procedure: as §2

[13] = system: T87G glioblastoma (GBM) cell line; assay: SRB analysis 3; conditions: 48 hours
Procedure: (§3) Through SRB analysis (n=3), the effect of triple combination treatment of a CAC inhibitor ([…] inhibitor (KN713: trimetazidine) and other anticancer drug on cell growth in the cancer cells was analyzed. (see Table 11). The SRB assay was performed as follows: each cell line (100 μl) was seeded into 96-well microtiter plates at densities ranging from 5,000 to 40,000 cells/well depending on the doubling time of each cell line. After 24 hours, drug (100 μl per well) was added to each well and the culture was incubated at 37° C. for 48 hours. Cells were then fixed in 50% TCA (50 μl per well) and plates were incubated at 4° C. for a minimum of 1 hour or a maximum of 3 hours. After that, the liquid was removed from the plate, then rinsed 5 times with water and dried for approximately 12-24 hours at room temperature (RT). After the fixed cells were stained with 0.4% SRB (100 μl per well) for 10 minutes at room temperature, the plates were washed 3 times with 1% glacial acetic acid and dried at room temperature for about 12-24 hours. SRB staining was dissolved in 10 mM Trizma base and absorbance was read at 515 nm.

[14] = system: U87MG glioblastoma (GBM) cell line; assay: SRB analysis 3; conditions: 48 hours
Procedure: as §3

## COc1ccc2[nH]c([S+]([O-])Cc3ncc(C)c(OC)c3C)nc2c1 (stereo not shown) [KN510, omeprazole]
[1]; BX-PC3, KN510 100 μM
  inhibition at 100 µM: 79.5%
[1]; BX-PC3, KN510 200 μM
  inhibition at 200 µM: 96.9%
[2]; CAPAN-1, KN510 100 μM
  cell growth (% of control) at 100 µM: 97.6%
[2]; CAPAN-1, KN510 200 μM
  cell growth (% of control) at 200 µM: 111%
[3]; Capan-2, KN510 100 μM
  inhibition at 100 µM: 1.3%
[3]; Capan-2, KN510 200 μM
  inhibition at 200 µM: 49.5%
[4]; MIA PaCa-2, KN510 100 μM
  inhibition at 100 µM: 70.8%
[4]; MIA PaCa-2, KN510 200 μM
  inhibition at 200 µM: 92.8%
[5]; KN510 100 μM
  inhibition at 100 µM: 81%
[5]; KN510 200 μM
  inhibition at 200 µM: 89.6%
[6]; KN510 100 μM
  inhibition at 100 µM: 68.2%
[6]; KN510 200 μM
  inhibition at 200 µM: 89.8%
[7]; KN510 100 μM
  degree of cell growth based on the control (100%): 77.31%
[7]; KN510 200 μM
  degree of cell growth based on the control (100%): 28.00%
[8]; KN510 100 μM
  degree of cell growth based on the control (100%): 40.19%
[8]; KN510 200 μM
  degree of cell growth based on the control (100%): 17.37%
[9]; KN510 100 μM
  degree of cell growth based on the control (100%): 86.46%
[9]; KN510 200 μM
  degree of cell growth based on the control (100%): 44.41%
[10]; KN510 100 μM
  degree of cell growth based on the control (100%): 97.11%
[10]; KN510 200 μM
  degree of cell growth based on the control (100%): 54.29%
[11]; KN510 100 μM
  degree of cell growth based on the control (100%): 43.26%
[11]; KN510 200 μM
  degree of cell growth based on the control (100%): 19.68%
[12]; KN510 100 μM
  degree of cell growth based on the control (100%): 78.12%
[12]; KN510 200 μM
  degree of cell growth based on the control (100%): 53.01%
[13]; KN510 100 μM
  cell growth (Control = 100): 67.87
[14]; KN510 100 μM
  cell growth (Control = 100): 84.15

## COc1ccc(CN2CCNCC2)c(OC)c1OC [KN713, trimetazidine]
[1]; BX-PC3, KN713 1 mM
  inhibition at 1000 µM: 12.3%
[2]; CAPAN-1, KN713 1 mM
  cell growth (% of control) at 1000 µM: 31.2%
[3]; Capan-2, KN713 1 mM
  inhibition at 1000 µM: -22.2%
[4]; MIA PaCa-2, KN713 1 mM
  inhibition at 1000 µM: 30.2%
[5]; KN713 1 mM
  inhibition at 1000 µM: 48.1%
[6]; KN713 1 mM
  inhibition at 1000 µM: -3.16%
[7]; KN713 2.5 mM
  degree of cell growth based on the control (100%): 61.66% and 62.56%
[8]; KN713 2.5 mM
  degree of cell growth based on the control (100%): 36.83% and 32.97%
[9]; KN713 2.5 mM
  degree of cell growth based on the control (100%): 78.16% and 58.31%
[10]; KN713 2.5 mM
  degree of cell growth based on the control (100%): −0.24% and 1.98%
[11]; KN713 2.5 mM
  degree of cell growth based on the control (100%): 53.40% and 61.55%
[12]; KN713 2.5 mM
  degree of cell growth based on the control (100%): 88.97% and 65.95%
[13]; KN713 2.5 mM
  cell growth (Control = 100): 59.89
[14]; KN713 2.5 mM
  cell growth (Control = 100): 66.40
